Among the data in ChEMBL document CHEMBL1649431, “Molecular mechanisms of macrolide resistance in clinical isolates of Mycoplasma pneumoniae from China” (2009) are MIC, MIC50 and MIC90 values, retold here.

In brackets after ≈: the same amount, converted by molar mass.

The subject of assay [1] is Mycoplasmoides pneumoniae. The experiment in a line: Antimicrobial activity against Mycoplasma pneumoniae FH by microdilution method. It is filed as functional.
Assay [2] deals with Mycoplasmoides pneumoniae. The experiment in a line: Antimicrobial activity against Mycoplasma pneumoniae clinical isolate harboring point mutations in 23S rRNA at positions 2063 and 2064 isolated from human respiratory tract by microdilution method. The assay is classed as functional. (Broth dilution looks for growth in wells or tubes with falling amounts of substance.)

In general, MIC refers to the smallest concentration in the dilution series that meets the test's criterion for growth inhibition. A lower MIC goes with inhibition by little substance. What is called MIC50 is an inhibitory concentration at the 50% level, which refers to growth in some studies and to a panel of isolates in others. High values mean lower susceptibility, low ones higher susceptibility. What is called MIC90 is the lowest concentration that inhibits either 90% of growth or 90% of the strains tested, depending on the study. A low value points to higher susceptibility.

In the case of `CC[C@H]1OC(=O)[C@H](C)[C@@H](O[C@H]2C[C@@](C)(OC)[C@@H](O)[C@H](C)O2)[C@H](C)[C@@H](O[C@@H]2O[C@H](C)C[C@H](N(C)C)[C@H]2O)[C@](C)(O)C[C@@H](C)C(=O)[C@H](C)[C@@H](O)[C@]1(C)O` [ERYTHROMYCIN], in assay [1], the MIC is 0.01 µg/mL (≈ 0.0136 µM). In assay [2], the lowest concentration to inhibit growth (MIC) was 0.01 µg/mL (≈ 0.0136 µM), the MIC50 amounted to 128 µg/mL (≈ 174 µM) and the MIC90 worked out at 512 µg/mL (≈ 698 µM).

Molecule `CC[C@H]1OC(=O)[C@H](C)[C@@H](O[C@H]2C[C@@](C)(OC)[C@@H](O)[C@H](C)O2)[C@H](C)[C@@H](O[C@@H]2O[C@H](C)C[C@H](N(C)C)[C@H]2O)[C@](C)(O)C[C@@H](C)CN(C)[C@H](C)[C@@H](O)[C@]1(C)O` [AZITHROMYCIN] displayed an MIC in assay [1] of 0.001 µg/mL (≈ 0.00134 µM). In assay [2], this molecule returned a minimum inhibitory concentration (MIC) of 0.001 µg/mL (≈ 0.00134 µM), an MIC50 of 128 µg/mL (≈ 171 µM) and an MIC90 of 256 µg/mL (≈ 342 µM).

The molecule `CO[C@@H]1[C@@H](O[C@@H]2O[C@H](C)[C@@H](O[C@H]3C[C@@](C)(O)[C@@H](OC(=O)CC(C)C)[C@H](C)O3)[C@H](N(C)C)[C@H]2O)[C@@H](CC=O)C[C@@H](C)[C@@H](O)/C=C/C=C/C[C@@H](C)OC(=O)C[C@H]1OC(C)=O` [JOSAMYCIN] yielded a minimal inhibitory concentration (MIC) in assay [1] of 0.1 µg/mL (≈ 0.121 µM). In assay [2], this molecule showed an MIC of 0.01 µg/mL (≈ 0.0121 µM), an MIC50 of 32 µg/mL (≈ 38.6 µM) and an MIC90 of 64 µg/mL (≈ 77.3 µM).
